# Measured values as given in patent US20200268864A1, “CANCER VACCINE COMPOSITIONS AND METHODS FOR USING SAME TO TREAT CANCER” (Dana-Farber Cancer Institute, Inc., priority 2017, published 2020).
# Assays:
# PBM tumor tissues = test: Gene Set Enrichment Analysis of PBM tumor tissues; type: in vivo, mouse; details: 18 days of treatment, vs vehicle; panel of 4604 genes
# Method: RNA was isolated from tumor samples as described above, sequenced on the ion Torrent platform per manufacturer's instructions using a custom AmpliSeq panel targeting 4604 murine genes relevant to our studies, and raw data was processed using the Torrent Suite and AmpliSeqRNA plugin to give read counts per gene. Differential gene expression analyses were carried out using DESeq2 with default parameters to obtain log 2 fold change (MAP) and adjusted p-values (Benjamini-Hochberg procedure) (Love et al. (2014) Genorme Biol. 15:550). Genes were ranked by log 2 fold change (MAP), and GSEA were carried out using the GSEAPreranked tool (Mootha et al. (2003) Nat. Genet. 34:267-273; Subramanian et al. (2005) Proc. Natl. Acad. Sci. USA 102:15545-15550). PCA were carried out using DESeq2.
# PBM cells = test: Cytosolic dsDNA (PicoGreen) and micronuclei staining, PBM cells; type: cell-based, mouse; details: 2.5 μM, 24 h
# Method: PBM and PPM cells were cultured on chambered cell culture slides (BD Falcon). Cells were treated with 2.5 μM olaparib or vehicle control (DMSO) for 24 hours. Following the treatment, cells were incubated with culture media containing PicoGreen double-stranded DNA stain (200-fold dilution, Life Technologies). After one-hour incubation, cells were fixed with 4% paraformaldehyde in PBS (Santa Cruz Biotechnology) for 10 minutes. Cells were then washed twice with PBS and stained with 300 nM DAPI (Thermo Fisher Scientific) for 10 minutes. Coverslips were mounted using ProLong Diamond Antifade Mountant (Thermo Fisher Scientific). Staining was imaged using a Leica SP5X laser scanning confocal microscope.
compound,measurement,setting,value
"O=C(c1cc(Cc2n[nH]c(=O)c3ccccc23)ccc1F)N1CCN(C(=O)C2CC2)CC1 [olaparib, Olaparib]",GSEA: expression of immune-related gene sets,PBM tumor tissues,"markedly upregulated expression of genes associated with immune response, T-cell activation and interferon-γ (IFNγ) response"
same,cytosolic dsDNAs and micronuclei,PBM cells,increased
